Series [1] relates to hypoxia inducible factor (HIF) prolyl hydroxylase. As to the kind of experiment: Inhibition of hypoxia inducible factor (HIF) prolyl hydroxylase (statement only). The class given is biochemical.
Series [2] in a line: Solubility of compounds of formula (Ia) in various media. It counts as physicochemical.

Results on one compound are retold here after patent publication US20230190731A1, “FORMULATION COMPRISING HIF PROLYL HYDROXYLASE INHIBITORS” (ZYDUS LIFESCIENCES LIMITED, priority 2020, published 2023).

With `O=C(O)CNC(=O)c1c(O)c2ccccc2n(OCC2CC2)c1=O` [Compound (Ia)], the “inhibitor of HIF prolyl hydroxylase” value in series [1] is on record as “potent inhibitor”. Further, the solubility result in series [2] (in 0.1 N HCL) is given as “insoluble”; in series [2] (in N,N-dimethyl formamide), “freely soluble”; in series [2] (in alkaline aqueous condition), “soluble”; in series [2] (in water) it was “partially soluble”.
